Experiment [1] concerns the target T1, human Siglec-2/CD22 protein (Homo sapiens, UniProt P20273).
T1 construct: purchased Acro Biosystems SI2-H82E3
T1 sequence (P20273 20-847): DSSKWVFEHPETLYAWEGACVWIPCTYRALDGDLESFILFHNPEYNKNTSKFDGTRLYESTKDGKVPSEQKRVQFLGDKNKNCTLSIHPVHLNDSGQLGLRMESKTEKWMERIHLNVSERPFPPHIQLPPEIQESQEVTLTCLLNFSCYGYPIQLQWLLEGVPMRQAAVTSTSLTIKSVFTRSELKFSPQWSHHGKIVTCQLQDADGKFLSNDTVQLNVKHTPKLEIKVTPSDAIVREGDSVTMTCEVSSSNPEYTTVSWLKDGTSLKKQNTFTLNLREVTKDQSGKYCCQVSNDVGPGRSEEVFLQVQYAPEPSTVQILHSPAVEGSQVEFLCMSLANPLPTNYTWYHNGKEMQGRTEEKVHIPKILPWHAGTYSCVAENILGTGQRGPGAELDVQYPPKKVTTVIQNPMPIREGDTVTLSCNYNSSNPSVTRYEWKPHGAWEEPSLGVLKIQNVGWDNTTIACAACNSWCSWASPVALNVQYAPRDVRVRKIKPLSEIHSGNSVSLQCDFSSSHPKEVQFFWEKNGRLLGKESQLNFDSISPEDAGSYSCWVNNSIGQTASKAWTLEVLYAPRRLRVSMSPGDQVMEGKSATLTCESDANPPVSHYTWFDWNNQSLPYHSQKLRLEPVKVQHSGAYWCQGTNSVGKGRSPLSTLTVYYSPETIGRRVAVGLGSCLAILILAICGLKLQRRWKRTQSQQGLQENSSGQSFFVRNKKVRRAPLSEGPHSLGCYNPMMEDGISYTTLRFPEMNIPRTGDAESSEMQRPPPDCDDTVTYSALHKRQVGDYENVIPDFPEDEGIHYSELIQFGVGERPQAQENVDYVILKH
Kind of experiment: SPR binding affinity to human CD22. The note with it: steady-state analysis. Summed up: (§1)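 SialoExo pretreatment, 4 h 37° C.; biotinylated CD22 on SA chip, Biacore 8K. Buffer 10 mM HEPES, 150 mM NaCl, 0.05% Tween-20, pH 7.5, 1% DMSO. Dissociation 120 s; solvent-corrected; steady-state KD.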
In general terms: In SPR one partner is held on a chip, and binding of the other changes the refractive index at the surface.

The next experiment deals with cynomolgus Siglec-2/CD22 (Macaca fascicularis, UniProt A0A2K5WCZ6). Kind of experiment: biochemical. The class given is binding. The note with it: SPR, steady-state analysis; read-out: Affinity cyno CD22. Summed up: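 Compound binding measured by steady-state SPR analysis, 120 s dissociation, in HEPES-NaCl-Tween buffer pH 7.5 containing 1% DMSO, DMSO solvent-corrected. Surface: cyno CD22, sialic acids first stripped by SialoExo for 4 h at 37° C., then amine-coupled onto CM5.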

In experiment [2] the target is T2, mouse Siglec-2-Fc-Avi (CD22) (Mus musculus, UniProt P35329).
T2 construct: made in house
T2 sequence (P35329 22-708 limits assumed): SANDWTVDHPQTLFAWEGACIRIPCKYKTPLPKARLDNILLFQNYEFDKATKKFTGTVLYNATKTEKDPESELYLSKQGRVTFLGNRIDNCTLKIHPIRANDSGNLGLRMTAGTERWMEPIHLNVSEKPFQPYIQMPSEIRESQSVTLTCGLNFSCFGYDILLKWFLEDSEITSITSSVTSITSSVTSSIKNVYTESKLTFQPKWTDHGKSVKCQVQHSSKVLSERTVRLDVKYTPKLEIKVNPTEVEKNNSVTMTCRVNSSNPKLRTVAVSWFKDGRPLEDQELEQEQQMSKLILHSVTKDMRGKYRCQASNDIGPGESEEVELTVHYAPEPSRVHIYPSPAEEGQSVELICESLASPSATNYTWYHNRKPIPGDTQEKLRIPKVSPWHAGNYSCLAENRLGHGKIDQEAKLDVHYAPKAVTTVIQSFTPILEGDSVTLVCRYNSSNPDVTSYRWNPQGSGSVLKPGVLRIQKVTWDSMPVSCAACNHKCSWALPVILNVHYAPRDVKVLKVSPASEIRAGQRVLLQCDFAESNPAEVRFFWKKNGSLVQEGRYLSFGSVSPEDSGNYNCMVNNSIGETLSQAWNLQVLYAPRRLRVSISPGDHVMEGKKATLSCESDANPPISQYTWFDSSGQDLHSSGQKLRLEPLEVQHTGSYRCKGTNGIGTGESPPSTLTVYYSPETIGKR
Kind of experiment: SPR binding affinity to mouse CD22. To be noted: steady-state analysis. Summed up: as §1

Sequence of cynomolgus Siglec-2/CD22 (A0A2K5WCZ6 entry or part of it): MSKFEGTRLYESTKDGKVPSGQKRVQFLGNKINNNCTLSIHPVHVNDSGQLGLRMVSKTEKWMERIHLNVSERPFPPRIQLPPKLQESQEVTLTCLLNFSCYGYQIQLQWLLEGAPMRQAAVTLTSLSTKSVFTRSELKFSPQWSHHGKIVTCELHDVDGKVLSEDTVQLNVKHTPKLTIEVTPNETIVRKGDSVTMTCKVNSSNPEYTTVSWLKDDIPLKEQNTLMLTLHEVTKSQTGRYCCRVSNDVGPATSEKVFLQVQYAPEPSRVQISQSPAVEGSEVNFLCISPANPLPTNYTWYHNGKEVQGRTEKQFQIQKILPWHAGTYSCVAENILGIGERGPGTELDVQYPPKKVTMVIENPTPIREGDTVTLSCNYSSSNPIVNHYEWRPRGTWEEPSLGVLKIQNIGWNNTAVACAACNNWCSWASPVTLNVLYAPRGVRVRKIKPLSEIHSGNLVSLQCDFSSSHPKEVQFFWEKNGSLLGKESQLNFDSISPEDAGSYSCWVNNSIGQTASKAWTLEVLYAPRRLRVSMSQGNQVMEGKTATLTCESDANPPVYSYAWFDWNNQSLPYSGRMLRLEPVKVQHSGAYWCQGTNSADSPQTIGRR

Regarding `C#CCOCCCCCCO[C@]1(C(=O)O)C[C@H](O)[C@@H](NC(=O)CO)[C@H]([C@H](O)[C@H](O)CNC(=O)Cc2ccc(-c3ccc(O)cc3)cc2)O1` [Compound 63, (2R,4S,5R,6R)-6-((1R,2R)-1,2-dihydroxy-3-(2-(4′-hydroxy-[1,1′-biphenyl]-4-yl)acetamido)propyl)-4-hydroxy-5-(2-hydroxyacetamido)-2-((6-(prop-2-yn-1-yloxy)hexyl)oxy)tetrahydro-2H-pyran-2-carboxylic acid], the Kd (in experiment [1]; on cynomolgus Siglec-2/CD22; in experiment [2]) was less than 1 µM in each case.

For `CC(=O)NCCOCCOCCOCCOCCn1cc(CCCCCCO[C@]2(C(=O)O)C[C@H](O)[C@@H](NC(C)=O)[C@H]([C@H](O)[C@H](O)CNC(=O)c3cccc(Cl)c3)O2)nn1` [Compound 272, (2R,4S,5R,6R)-5-acetamido-6-((1R,2R)-3-(3-chlorobenzamido)-1,2-dihydroxypropyl)-4-hydroxy-2-((6-(1-(2-oxo-6,9,12,15-tetraoxa-3-azaheptadecan-17-yl)-1H-1,2,3-triazol-4-yl)hexyl)oxy)tetrahydro-2H-pyran-2-carboxylic acid], the results for the Kd (in experiment [1]; on cynomolgus Siglec-2/CD22; in experiment [2]) were 1 to 10 µM, 1 to 10 µM and more than 10 µM, respectively.

`C#CCOCCCCCCO[C@]1(C(=O)O)C[C@H](O)[C@@H](NC(=O)NCC2CC2)[C@H]([C@H](O)[C@H](O)CNC(=O)Cc2ccc(Cl)cc2)O1` [Compound 94, (2R,4S,5R,6R)-6-((1R,2R)-3-(2-(4-chlorophenyl)acetamido)-1,2-dihydroxypropyl)-5-(3-(cyclopropylmethyl)ureido)-4-hydroxy-2-((6-(prop-2-yn-1-yloxy)hexyl)oxy)tetrahydro-2H-pyran-2-carboxylic acid]: the Kd (in experiment [1]; at cynomolgus Siglec-2/CD22; in experiment [2]) was 1 to 10 µM throughout.

In the case of `C#CCOCCCCCCC(O)[C@]1(C(=O)O)C[C@H](O)[C@@H](NC(=O)CO)[C@H]([C@H](O)[C@H](O)CNC(=O)Cc2ccc(Cl)cc2)O1` (stereo partly drawn) [Compound 103, (2S,4S,5R,6R)-6-((1R,2R)-3-(2-(4-chlorophenyl)acetamido)-1,2-dihydroxypropyl)-4-hydroxy-2-(1-hydroxy-7-(prop-2-yn-1-yloxy)heptyl)-5-(2-hydroxyacetamido)tetrahydro-2H-pyran-2-carboxylic acid], the Kd in experiment [1] is less than 1 µM; on cynomolgus Siglec-2/CD22 it was less than 1 µM; in experiment [2], 1 to 10 µM.

In the case of `C#CCOCCOCCO[C@]1(C(=O)O)C[C@H](O)[C@@H](NC(=O)CO)[C@H]([C@H](O)[C@H](O)CNC(=O)Cc2ccc(O)cc2)O1` [Compound 153, (2R,4S,5R,6R)-6-((1R,2R)-1,2-dihydroxy-3-(2-(4-hydroxyphenyl)acetamido)propyl)-4-hydroxy-5-(2-hydroxyacetamido)-2-(2-(2-(prop-2-yn-1-yloxy)ethoxy)ethoxy)tetrahydro-2H-pyran-2-carboxylic acid], the Kd in experiment [1] was 1 to 10 µM; on cynomolgus Siglec-2/CD22, 1 to 10 µM; in experiment [2], less than 1 µM.

Turning to `C#CCCCCCCc1cn([C@]2(C(=O)O)C[C@H](O)[C@@H](NC(=O)CO)[C@H]([C@H](O)[C@H](O)CNC(=O)Cc3ccc(Cl)cc3)O2)nn1` [Compound 119, (2R,4S,5R,6R)-6-((1R,2R)-3-(2-(4-chlorophenyl)acetamido)-1,2-dihydroxypropyl)-4-hydroxy-5-(2-hydroxyacetamido)-2-(4-(oct-7-yn-1-yl)-1H-1,2,3-triazol-1-yl)tetrahydro-2H-pyran-2-carboxylic acid], the Kd (in experiment [1]; on cynomolgus Siglec-2/CD22; in experiment [2]) was 1 to 10 µM in each case.

Consider `C#CCOCCOCCO[C@]1(C(=O)O)C[C@H](O)[C@@H](NC(=O)CO)[C@H]([C@H](O)[C@H](O)CNC(=O)Cc2cccc(-c3ccccc3)c2)O1` [Compound 33, (2R,4S,5R,6R)-6-((1R,2R)-3-(2-([1,1′-biphenyl]-3-yl)acetamido)-1,2-dihydroxypropyl)-4-hydroxy-5-(2-hydroxyacetamido)-2-(2-(2-(prop-2-yn-1-yloxy)ethoxy)ethoxy)tetrahydro-2H-pyran-2-carboxylic acid], for which the Kd in experiment [1] was less than 1 µM; at cynomolgus Siglec-2/CD22, 1 to 10 µM; in experiment [2], more than 10 µM.

Take `C#CCCOc1ccc(CO[C@]2(C(=O)O)C[C@H](O)[C@@H](NC(=O)CO)[C@H]([C@H](O)[C@H](O)CNC(=O)Cc3ccc(-c4ccc(O)cc4)cc3)O2)cc1` [Compound 77, (2R,4S,5R,6R)-2-((4-(but-3-yn-1-yloxy)benzyl)oxy)-6-((1R,2R)-1,2-dihydroxy-3-(2-(4′-hydroxy-[1,1′-biphenyl]-4-yl)acetamido)propyl)-4-hydroxy-5-(2-hydroxyacetamido)tetrahydro-2H-pyran-2-carboxylic acid]: the Kd (in experiment [1]; on cynomolgus Siglec-2/CD22; in experiment [2]) was less than 1 µM in each case.

Turning to `C#CCCOc1ccc(CS[C@]2(C(=O)O)C[C@H](O)[C@@H](NC(=O)CO)[C@H]([C@H](O)[C@H](O)CNC(=O)Cc3ccc(Cl)cc3)O2)cc1` [Compound 122, (2S,4S,5R,6R)-2-((4-(but-3-yn-1-yloxy)benzyl)thio)-6-((1R,2R)-3-(2-(4-chlorophenyl)acetamido)-1,2-dihydroxypropyl)-4-hydroxy-5-(2-hydroxyacetamido)tetrahydro-2H-pyran-2-carboxylic acid], the Kd (in experiment [1]; on cynomolgus Siglec-2/CD22; in experiment [2]) was less than 1 µM throughout.

For the compound `CC(=O)NCCOCCOCCOCCOCCNC(=O)CCOCCO[C@]1(C(=O)O)C[C@H](O)[C@@H](NC(=O)CO)[C@H]([C@H](O)[C@H](O)CNC(=O)Cc2ccc(-c3ccccc3)cc2)O1` [Compound 238, (2R,4S,5R,6R)-6-((1R,2R)-3-(2-([1,1′-biphenyl]-4-yl)acetamido)-1,2-dihydroxypropyl)-2-((2,19-dioxo-6,9,12,15,22-pentaoxa-3,18-diazatetracosan-24-yl)oxy)-4-hydroxy-5-(2-hydroxyacetamido) tetrahydro-2H-pyran-2-carboxylic acid], the Kd (in experiment [1]; on cynomolgus Siglec-2/CD22; in experiment [2]) was 1 to 10 µM in each case.

With `C#CCOCCCCCCO[C@]1(C(=O)O)C[C@H](O)[C@@H](NC(=O)CN(C)C)[C@H]([C@H](O)[C@H](O)CNC(=O)Cc2ccc(Cl)cc2)O1` [Compound 25, (2R,4S,5R,6R)-6-((1R,2R)-3-(2-(4-chlorophenyl)acetamido)-1,2-dihydroxypropyl)-5-(2-(dimethylamino)acetamido)-4-hydroxy-2-((6-(prop-2-yn-1-yloxy)hexyl)oxy)tetrahydro-2H-pyran-2-carboxylic acid], the Kd in experiment [1] was more than 10 µM; on cynomolgus Siglec-2/CD22, 1 to 10 µM; in experiment [2], 1 to 10 µM.

As to `CC(=O)NCCOCCOCCOCCOCc1cn(CCCCCCO[C@]2(C(=O)O)C[C@H](O)[C@@H](NC(=O)CO)[C@H]([C@H](O)[C@H](O)CNC(=O)Cc3ccc(Cl)cc3)O2)nn1` [Cpd. 246, (2R,4S,5R,6R)-6-((1R,2R)-3-(2-(4-chlorophenyl)acetamido)-1,2-dihydroxypropyl)-4-hydroxy-5-(2-hydroxyacetamido)-2-((6-(4-(15-oxo-2,5,8,11-tetraoxa-14-azahexadecyl)-1H-1,2,3-triazol-1-yl)hexyl)oxy) tetrahydro-2H-pyran-2-carboxylic acid], the Kd (in experiment [1]; at cynomolgus Siglec-2/CD22; in experiment [2]) was less than 1 µM each time.

Source of the values: US20250064941A1, “SIGLEC LIGANDS, CONJUGATES, AND METHODS OF USE THEREOF” (Osprey Biopharmaceuticals, Inc., priority 2023, published 2025).
